In brackets after ≈: the same amount, converted by molar mass.
tested on: Streptococcus pyogenes; assay: In vitro minimum inhibitory concentration (MIC) vs. Strep. pyogenes; type: cell-based; details: Examples
Procedure: The antibacterial penam compounds of the instant invention show activity against a wide variety of gram-positive and gram-negative bacteria. […] The broth is inoculated with the bacterial culture, and with the test antibiotic, and then it is incubated overnight. On the next day, the test is read visually. The minimum inhibitory concentration (MIC) is the lowest concentration of antibiotic which prevents turbidity, i.e., which prevents growth of the microorganism. In vitro activities of several of the penam compounds of the invention are presented later in this specification.
In Table II, the minimum inhibitory concentrations (MIC's) of compounds of formula I, wherein R^2 is hydrogen, against a strain of Streptococcus pyogenes, are reported; and in Table III, minimum inhibitory concentrations of compounds of formula I, wherein R^2 is hydrogen, against a strain of Staphylococcus aureus, are presented. Because of the tautomeric nature of such tetrazole derivatives, referred to hereinbefore,each of the preparations tested also contains some of the corresponding compound of formula II, wherein R^3 is hydrogen.

With “6-(2-Phenylacetamido)-2,2-dimethyl-3-(1-pivaloyloxymethyl]-tetrazol-5-yl)penam and 6-(2-Phenylacetamido)-2,2-dimethyl-3-(2-[pivaloyloxylmethyl]tetrazol-5-yl)penam” the “MIC against Strep. pyogenes” value was 0.2 µg/mL.

same assay, conditions: Streptococcus pyogenes, read-out: MIC vs. Strep. pyogenes

`CC1(C)S[C@@H]2[C@H](NC(=O)[C@H](NC(=O)CCNC(=O)Nc3ccccc3)c3ccccc3)C(=O)N2[C@H]1c1nnn[nH]1` and `CC1(C)S[C@@H]2[C@H](NC(=O)C(NC(=O)CBr)c3ccccc3)C(=O)N2[C@H]1c1nn[nH]n1` (stereo partly drawn) [2-(2-bromoacetamido)-2-phenylacetyl, 6-(2-[2-bromoacetamido]-2-phenylacetamido)-2,2-dimethyl-3-(5-tetrazolyl)penam] cannot be ordered by MIC: less than 0.1 µg/mL for the first, less than 0.1 µg/mL for the second.

`CC1(C)S[C@@H]2[C@H](NC(=O)C(N)c3cc(O)ccc3Br)C(=O)N2[C@H]1c1nnn[nH]1` (mixture of isomers) and `CC1(C)S[C@@H]2[C@H](NC(=O)C(N)c3ccc(S(N)(=O)=O)cc3)C(=O)N2[C@H]1c1nnn[nH]1` (mixture of isomers) [DL-2-amino-2-(p-sulfamoylphenyl)acetyl] cannot be ordered by MIC: less than 0.1 µg/mL for the first, less than 0.1 µg/mL for the second.

`CC1(C)S[C@@H]2[C@H](NC(=O)C(N)c3cccnc3)C(=O)N2[C@H]1c1nnn[nH]1` (mixture of isomers) [DL-2-amino-2-(3-pyridyl)acetyl] and `CC1(C)S[C@@H]2[C@H](NC(=O)CNC(=N)c3cccs3)C(=O)N2[C@H]1c1nnn[nH]1` [2-(2-thiophenecarboxamidino)acetyl] cannot be ordered by MIC: less than 0.1 µg/mL for the first, less than 0.1 µg/mL for the second.

Compound `CC1(C)S[C@@H]2[C@H](NC(=O)Cc3ccccc3CN=[N+]=[N-])C(=O)N2[C@H]1c1nnn[nH]1` [2-(2-azidomethylphenyl)acetyl, 6-(2-[2-Azidomethylphenyl]acetamido)-2,2-dimethyl-3-(5-tetrazolyl)penam] has an MIC of no more than 0.1 µg/mL.

same assay, conditions: Streptococcus pyogenes; Table II; two-fold serial dilution, Brain-Heart Infusion broth, overnight; read-out: MIC vs. Strep. pyogenes

Compared with `CC1(C)S[C@@H]2[C@H](NC(=O)[C@H](NC(=O)CNC(=O)NC(=N)c3ccccc3)c3ccccc3)C(=O)N2[C@H]1c1nnn[nH]1`, `CC1(C)S[C@@H]2[C@H](NC(=O)[C@H](NC(=O)CCNC(=N)c3ccccc3)c3ccccc3)C(=O)N2[C@H]1c1nnn[nH]1` is 4-fold higher in MIC: 0.78 µg/mL (≈ 1.35 µM) for the first, 3.12 µg/mL (≈ 5.7 µM) for the second.

Compared with `COc1ccc(C(=N)NC(=O)NCC(=O)N[C@@H](C(=O)N[C@@H]2C(=O)N3[C@@H]2SC(C)(C)[C@@H]3c2nnn[nH]2)c2ccccc2)cc1`, `CC1(C)S[C@@H]2[C@H](NC(=O)[C@H](NC(=O)CNC(=N)Cc3ccc(Cl)cc3)c3ccccc3)C(=O)N2[C@H]1c1nnn[nH]1` is 7.8-fold lower in MIC: 1.56 µg/mL (≈ 2.57 µM) for the first, 0.2 µg/mL (≈ 0.344 µM) for the second.

Going from `CC1(C)S[C@@H]2[C@H](NC(=O)[C@H](NC(=O)NC(=O)c3ccncc3)c3ccccc3)C(=O)N2[C@H]1c1nn[nH]n1` to `CC1(C)S[C@@H]2[C@H](NC(=O)[C@H](NC(=O)c3ccncc3)c3ccccc3)C(=O)N2[C@H]1c1nnn[nH]1`, the MIC rises from 0.2 µg/mL (≈ 0.383 µM) to 3.12 µg/mL (≈ 6.52 µM) (16-fold).

Compared with `CC1(C)S[C@@H]2[C@H](NC(=O)C(Cc3ccccc3)NC(=N)c3ccncc3)C(=O)N2[C@H]1c1nnn[nH]1` (stereo partly drawn), `CC1(C)S[C@@H]2[C@H](NC(=O)[C@H](NC(=O)CSCc3ccccc3)c3ccccc3)C(=O)N2[C@H]1c1nnn[nH]1` is 3.9-fold higher in MIC: 0.2 µg/mL (≈ 0.407 µM) for the first, 0.78 µg/mL (≈ 1.45 µM) for the second.

Going from `CC1(C)S[C@@H]2[C@H](NC(=O)[C@H](NC(=O)CNC(=N)c3nc4ccccc4o3)c3ccccc3)C(=O)N2[C@H]1c1nnn[nH]1` to `CC1(C)S[C@@H]2[C@H](NC(=O)[C@H](NC(=O)CNC(=N)c3cccc(C#N)c3)c3ccccc3)C(=O)N2[C@H]1c1nnn[nH]1`, the MIC rises from 0.39 µg/mL (≈ 0.679 µM) to 6.25 µg/mL (≈ 11.2 µM) (16-fold).

Going from `CC1(C)S[C@@H]2[C@H](NC(=O)[C@H](NC(=O)CSc3ncc[nH]3)c3ccccc3)C(=O)N2[C@H]1c1nn[nH]n1` to `CC1(C)S[C@@H]2[C@H](NC(=O)[C@H](NC(=O)CSC(=N)N)c3ccccc3)C(=O)N2[C@H]1c1nn[nH]n1`, the MIC falls from 0.2 µg/mL (≈ 0.389 µM) to 0.004 µg/mL (≈ 0.00817 µM) (50-fold).

Compared with `CC1(C)S[C@@H]2[C@H](NC(=O)[C@H](NC(=O)CNC(=N)c3ncccn3)c3ccccc3)C(=O)N2[C@H]1c1nnn[nH]1`, `CC1(C)S[C@@H]2[C@H](NC(=O)[C@H](NC(=O)CNC(=N)c3cc(Cl)cc(C#N)c3)c3ccccc3)C(=O)N2[C@H]1c1nnn[nH]1` is 200-fold lower in MIC: 0.78 µg/mL (≈ 1.46 µM) for the first, 0.004 µg/mL (≈ 0.00674 µM) for the second.

Going from `CC1(C)S[C@@H]2[C@H](NC(=O)[C@H](NC(=O)CNC(=O)NC(=N)NCc3ccncc3)c3ccccc3)C(=O)N2[C@H]1c1nn[nH]n1` to `CC1(C)S[C@@H]2[C@H](NC(=O)[C@H](NC(=O)CNC(=O)NC(=N)NCc3ccc(Cl)cc3)c3ccccc3)C(=O)N2[C@H]1c1nn[nH]n1`, the MIC rises from 0.004 µg/mL (≈ 0.00659 µM) to 0.39 µg/mL (≈ 0.609 µM) (98-fold).

Compared with `CC1(C)S[C@@H]2[C@H](NC(=O)[C@H](NC(=O)CNC(=O)NC(=N)NCC3CCCCC3)c3ccccc3)C(=O)N2[C@H]1c1nn[nH]n1`, `CC1(C)S[C@@H]2[C@H](NC(=O)[C@H](NC(=O)CNC(=O)NC(=N)N)c3ccccc3)C(=O)N2[C@H]1c1nn[nH]n1` is 16-fold higher in MIC: 0.2 µg/mL (≈ 0.327 µM) for the first, 3.12 µg/mL (≈ 6.05 µM) for the second.

First: CC1(C)S[C@@H]2[C@H](NC(=O)[C@H](NC(=O)CNC(=O)NS(C)(=O)=O)c3ccccc3)C(=O)N2[C@H]1c1nnn[nH]1
Second: CCNC(=S)NCCC(=O)N[C@@H](C(=O)N[C@@H]1C(=O)N2[C@@H]1SC(C)(C)[C@@H]2c1nnn[nH]1)c1ccccc1
The MIC of the first is 1.9-fold lower: 0.2 µg/mL (≈ 0.363 µM) for the first, 0.39 µg/mL (≈ 0.734 µM) for the second.

`CC1(C)S[C@@H]2[C@H](NC(=O)[C@H](NC(=O)CNC(=N)c3cc(Br)cc(S(N)(=O)=O)c3)c3ccccc3)C(=O)N2[C@H]1c1nnn[nH]1` and `CC1(C)S[C@@H]2[C@H](NC(=O)[C@H](NC(=O)CNC(=N)c3cc(Cl)cc(S(N)(=O)=O)c3)c3ccccc3)C(=O)N2[C@H]1c1nnn[nH]1` are the same in MIC: 0.004 µg/mL (≈ 0.00578 µM) for the first, 0.004 µg/mL (≈ 0.00618 µM) for the second.

First: CC1(C)S[C@@H]2[C@H](NC(=O)[C@H](NC(=O)CNC(=N)c3cc(S(N)(=O)=O)cc(S(N)(=O)=O)c3)c3ccccc3)C(=O)N2[C@H]1c1nnn[nH]1
Second: CC1(C)S[C@@H]2[C@H](NC(=O)[C@H](NC(=O)CCNC(=N)c3ccc(Cl)c(Cl)c3)c3ccccc3)C(=O)N2[C@H]1c1nnn[nH]1
The MIC of the first is 200-fold lower: 0.004 µg/mL (≈ 0.00578 µM) for the first, 0.78 µg/mL (≈ 1.27 µM) for the second.

First: CC1(C)S[C@@H]2[C@H](NC(=O)[C@H](NC(=O)Cc3ccc(Br)cc3)c3ccccc3)C(=O)N2[C@H]1c1nnn[nH]1
Second: CC1(C)S[C@@H]2[C@H](NC(=O)[C@H](NC(=O)CCNC(=N)Cc3ccc(Cl)cc3)c3ccccc3)C(=O)N2[C@H]1c1nnn[nH]1
The MIC of the first is 7.8-fold lower: 0.2 µg/mL (≈ 0.351 µM) for the first, 1.56 µg/mL (≈ 2.62 µM) for the second.

`CCCCN=C(NCCCC)SCC(=O)N[C@@H](C(=O)N[C@@H]1C(=O)N2[C@@H]1SC(C)(C)[C@@H]2c1nn[nH]n1)c1ccccc1` and `CCN=C(NCC)SCC(=O)N[C@@H](C(=O)N[C@@H]1C(=O)N2[C@@H]1SC(C)(C)[C@@H]2c1nn[nH]n1)c1ccccc1` are the same in MIC: 0.004 µg/mL (≈ 0.00665 µM) for the first, 0.004 µg/mL (≈ 0.00733 µM) for the second.

Going from `CC1(C)S[C@@H]2[C@H](NC(=O)[C@H](NC(=O)CNC(=O)OCc3ccccc3)c3ccccc3)C(=O)N2[C@H]1c1nnn[nH]1` to `CC1(C)S[C@@H]2[C@H](NC(=O)[C@H](NC(=O)NC(=O)OCc3ccccc3)c3ccccc3)C(=O)N2[C@H]1c1nn[nH]n1`, the MIC falls from 0.39 µg/mL (≈ 0.691 µM) to 0.004 µg/mL (≈ 0.00726 µM) (98-fold).

First: CC1(C)S[C@@H]2[C@H](NC(=O)[C@H](NC(=O)Cc3ccc(NC(=N)N)cc3)c3ccccc3)C(=O)N2[C@H]1c1nn[nH]n1
Second: COc1ccc(S(=O)(=O)N[C@@H](C(=O)N[C@@H]2C(=O)N3[C@@H]2SC(C)(C)[C@@H]3c2nn[nH]n2)c2ccccc2)cc1
The MIC of the first is 7.8-fold higher: 1.56 µg/mL (≈ 2.84 µM) for the first, 0.2 µg/mL (≈ 0.368 µM) for the second.

First: CC1(C)S[C@@H]2[C@H](NC(=O)[C@H](NS(=O)(=O)c3cccs3)c3ccccc3)C(=O)N2[C@H]1c1nn[nH]n1
Second: CC1(C)S[C@@H]2[C@H](NC(=O)[C@H](NS(=O)(=O)c3ccc4ccccc4c3)c3ccccc3)C(=O)N2[C@H]1c1nn[nH]n1
The MIC of the first is 1.9-fold higher: 0.39 µg/mL (≈ 0.751 µM) for the first, 0.2 µg/mL (≈ 0.355 µM) for the second.

Compared with `CC1(C)S[C@@H]2[C@H](NC(=O)[C@H](NC(=O)CCNC(=S)Nc3ccccc3)c3ccccc3)C(=O)N2[C@H]1c1nnn[nH]1`, `CC1(C)S[C@@H]2[C@H](NC(=O)[C@H](NC(=O)CCNC(=N)c3cc[n+]([O-])cc3)c3ccccc3)C(=O)N2[C@H]1c1nnn[nH]1` is 2-fold higher in MIC: 1.56 µg/mL (≈ 2.69 µM) for the first, 3.12 µg/mL (≈ 5.53 µM) for the second.

First: CC(=O)NC(=S)N[C@@H](C(=O)N[C@@H]1C(=O)N2[C@@H]1SC(C)(C)[C@@H]2c1nn[nH]n1)c1ccccc1
Second: CC1(C)S[C@@H]2[C@H](NC(=O)C(CN)c3ccccc3)C(=O)N2[C@H]1c1nnn[nH]1 (mixture of isomers) [DL-3-amino-2-phenylpropionyl, 6-(DL-3-amino-2-phenylpropionamido)-2,2-dimethyl-3-(5-tetrazolyl)penam]
The MIC of the first is 3.9-fold lower: 3.2 µg/mL (≈ 6.74 µM) for the first, 12.5 µg/mL for the second.

Going from `CC1(C)S[C@@H]2[C@H](NC(=O)[C@H](NC(=O)C(=O)Oc3ccccc3)c3ccccc3)C(=O)N2[C@H]1c1nnn[nH]1` to `CC1(C)S[C@@H]2[C@H](NC(=O)Cc3ccccc3CC(=O)O)C(=O)N2[C@H]1c1nnn[nH]1` [2-(2-[carboxymethyl]phenyl)acetyl, 6-(2-[2-(Carboxymethyl)phenyl]acetamido)-2,2-dimethyl-3-(5-tetrazolyl)penam], the MIC falls from 25 µg/mL (≈ 47.9 µM) to 0.2 µg/mL (≈ 0.48 µM) (120-fold).

First: CC1(C)S[C@@H]2[C@H](NC(=O)C(N)c3cccc([N+](=O)[O-])c3)C(=O)N2[C@H]1c1nnn[nH]1 (mixture of isomers) [DL-2-amino-2-(m-nitrophenyl)acetyl]
Second: CC1(C)S[C@@H]2[C@H](NC(=O)CSc3ccccc3CN)C(=O)N2[C@H]1c1nnn[nH]1 [2-(2-[aminomethyl]phenylthio)acetyl]
The MIC of the first is 390-fold lower: 0.004 µg/mL for the first, 1.56 µg/mL (≈ 3.72 µM) for the second.

Compared with `COc1cccc(OC)c1C(=O)N[C@@H]1C(=O)N2[C@@H]1SC(C)(C)[C@@H]2c1nnn[nH]1` [2,6-dimethoxybenzoyl, 6-(2,6-dimethoxybenzamido)-2,2-dimethyl-3-(5-tetrazolyl)penam], `Cc1cc(C)cc(C(=N)NCC(=O)N[C@@H]2C(=O)N3[C@@H]2SC(C)(C)[C@@H]3c2nnn[nH]2)c1` [2-(3,5-dimethylbenzamidino)acetyl] is 1.9-fold higher in MIC: 0.2 µg/mL (≈ 0.494 µM) for the first, 0.39 µg/mL (≈ 0.91 µM) for the second.

same assay, conditions: Table IV

With “6-(2-Phenylacetamido)-2,2-dimethyl-3-(1-pivaloyloxymethyl]-tetrazol-5-yl)penam and 6-(2-Phenylacetamido)-2,2-dimethyl-3-(2-[pivaloyloxylmethyl]tetrazol-5-yl)penam” the “MIC vs. Strep. pyogenes” value was 0.2 µg/mL.

In the case of “6-(2-[2-Aminomethylphenyl]acetamido)-2,2-dimethyl-3-(1-[2]-pivaloyloxymethyltetrazol-5-yl)penam”, the “MIC vs. Strep. pyogenes” value is reported as less than 0.1 µg/mL.

Reference: patent publication US4115385A, “Antibacterial 3-(5-tetrazolyl) penam compounds” (Pfizer Inc., priority 1977, dated 1978)
